Test results: PubChem BioAssay AID2060492 (Molecular Pharmacology Branch, DTP, NCI, 2025)

Test system: 695427-040-R-J1-PDC complex spheroids, viability percent T/C
Assay: Anticancer human tumor 695427-040-R-J1-PDC patient-derived colon adenocarcinoma cell line growth inhibition [GQUAD]
Settings: for IC50: curve of first compound; for viability, T/C: stronger effect = lower value
Procedure, shortened: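 Viability of tumor cells grown as complex spheroids with endothelial and stromal cells, exposed to drug combinations. Top concentration at or near clinical Cmax (else 10 microM), diluted in half-log increments.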

[1] = second compound 0.0316 µM, first compound 0.0316 µM
[2] = second compound 0.0316 µM, first compound 0.1 µM
[3] = second compound 0.0316 µM, first compound 0.316 µM
[4] = second compound 0.0316 µM, first compound 1 µM
[5] = second compound 0.0316 µM, first compound 3.16 µM
[6] = second compound 0.0316 µM, first compound 10 µM
[7] = second compound 0.1 µM, first compound 0.0316 µM
[8] = second compound 0.1 µM, first compound 0.1 µM
[9] = second compound 0.1 µM, first compound 0.316 µM
[10] = second compound 0.1 µM, first compound 1 µM
[11] = second compound 0.1 µM, first compound 3.16 µM
[12] = second compound 0.1 µM, first compound 10 µM
[13] = second compound 0.316 µM, first compound 0.0316 µM
[14] = second compound 0.316 µM, first compound 0.1 µM
[15] = second compound 0.316 µM, first compound 0.316 µM
[16] = second compound 0.316 µM, first compound 1 µM
[17] = second compound 0.316 µM, first compound 3.16 µM
[18] = second compound 0.316 µM, first compound 10 µM
[19] = second compound 1 µM, first compound 0.0316 µM
[20] = second compound 1 µM, first compound 0.1 µM
[21] = second compound 1 µM, first compound 0.316 µM
[22] = second compound 1 µM, first compound 1 µM
[23] = second compound 1 µM, first compound 3.16 µM
[24] = second compound 1 µM, first compound 10 µM
[25] = second compound 3.16 µM, first compound 0.0316 µM
[26] = second compound 3.16 µM, first compound 0.1 µM
[27] = second compound 3.16 µM, first compound 0.316 µM
[28] = second compound 3.16 µM, first compound 1 µM
[29] = second compound 3.16 µM, first compound 3.16 µM
[30] = second compound 3.16 µM, first compound 10 µM
[31] = second compound 10 µM, first compound 0.0316 µM
[32] = second compound 10 µM, first compound 0.1 µM
[33] = second compound 10 µM, first compound 0.316 µM
[34] = second compound 10 µM, first compound 1 µM
[35] = second compound 10 µM, first compound 3.16 µM
[36] = second compound 10 µM, first compound 10 µM
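Note: spheroids exposed to compounds for seven days before readout.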

For `C#Cc1c(F)ccc2cc(O)cc(-c3ncc4c(N5CC6CCC(C5)N6)nc(OCC56CCCN5CC(F)C6)nc4c3F)c12` (stereo unspecified) + CN(C)c1ccc(Nc2c3ccc(NC(=O)CCN4CCCC4)cc3nc3cc(NC(=O)CCN4CCCC4)ccc23)cc1, the IC50 (second compound 0.0316 µM) was over 10 µM, the IC50 (second compound 0.1 µM) was over 10 µM and the IC50 (second compound 0.316 µM) was over 10 µM. The IC50 (second compound 1 µM) was over 10 µM, the IC50 (second compound 3.16 µM) was over 10 µM and the IC50 (second compound 10 µM) was over 10 µM. It also gave a viability, T/C [1] of 101%, a viability, T/C [2] of 102% and a viability, T/C [3] of 100%. The viability, T/C [4] was 98.9%, the viability, T/C [5] was 98.4% and the viability, T/C [6] was 83.5%. The viability, T/C [7] was 106%, the viability, T/C [8] was 95.4% and the viability, T/C [9] was 98%. For the same compound, the viability, T/C [10] was 94%, the viability, T/C [11] was 97.5% and the viability, T/C [12] was 83.3%. The viability, T/C [13] was 96.4%, the viability, T/C [14] was 106% and the viability, T/C [15] was 94.6%. The viability, T/C [16] was 89.5%, the viability, T/C [17] was 99.1% and the viability, T/C [18] was 80.6%. For the same compound, the viability, T/C [19] was 100%, the viability, T/C [20] was 102% and the viability, T/C [21] was 106%. For the same compound, the viability, T/C [22] was 101%, the viability, T/C [23] was 91.8% and the viability, T/C [24] was 77.5%. For the same compound, the viability, T/C [25] was 101%, the viability, T/C [26] was 91% and the viability, T/C [27] was 92.9%. The viability, T/C [28] was 87.7%, the viability, T/C [29] was 86.2% and the viability, T/C [30] was 80.7%. The viability, T/C [31] was 87.1%, the viability, T/C [32] was 91.8% and the viability, T/C [33] was 86.1%. It also gave a viability, T/C [34] of 87.4%, a viability, T/C [35] of 82.4% and a viability, T/C [36] of 62.4%.
In the case of `CC(=O)O[C@H]1C(=O)[C@@]2(C)[C@H]([C@H](OC(=O)c3ccccc3)[C@]3(O)C[C@H](OC(=O)[C@H](O)[C@@H](NC(=O)c4ccccc4)c4ccccc4)C(C)=C1C3(C)C)[C@]1(OC(C)=O)CO[C@@H]1C[C@@H]2O` + CN(C)c1ccc(Nc2c3ccc(NC(=O)CCN4CCCC4)cc3nc3cc(NC(=O)CCN4CCCC4)ccc23)cc1, the IC50 (second compound 0.0316 µM) is reported as over 10 µM, the IC50 (second compound 0.1 µM) is reported as over 10 µM and the IC50 (second compound 0.316 µM) is reported as over 10 µM. For the same compound, the IC50 (second compound 1 µM) was over 10 µM, the IC50 (second compound 3.16 µM) was over 10 µM and the IC50 (second compound 10 µM) was over 10 µM. For the same compound, the viability, T/C [1] was 98.5%, the viability, T/C [2] was 90.7% and the viability, T/C [3] was 90.4%. For the same compound, the viability, T/C [4] was 85.6%, the viability, T/C [5] was 84% and the viability, T/C [6] was 73.2%. The viability, T/C [7] was 98.5%, the viability, T/C [8] was 87.8% and the viability, T/C [9] was 89.3%. It also gave a viability, T/C [10] of 79.8%, a viability, T/C [11] of 79.5% and a viability, T/C [12] of 68.7%. It also gave a viability, T/C [13] of 106%, a viability, T/C [14] of 96% and a viability, T/C [15] of 85.5%. The viability, T/C [16] was 84.5%, the viability, T/C [17] was 82.6% and the viability, T/C [18] was 70.1%. The viability, T/C [19] was 89.7%, the viability, T/C [20] was 88.4% and the viability, T/C [21] was 89.8%. For the same compound, the viability, T/C [22] was 85.5%, the viability, T/C [23] was 76.3% and the viability, T/C [24] was 69.8%. The viability, T/C [25] was 92.8%, the viability, T/C [26] was 96.7% and the viability, T/C [27] was 88.7%. For the same compound, the viability, T/C [28] was 84.3%, the viability, T/C [29] was 77.4% and the viability, T/C [30] was 66.3%. The viability, T/C [31] was 86.9%, the viability, T/C [32] was 84.8% and the viability, T/C [33] was 84.5%. For the same compound, the viability, T/C [34] was 75.8%, the viability, T/C [35] was 71.2% and the viability, T/C [36] was 61.9%.
With `CC(C)(O)C1CCC(Nc2ccc3ncc(-c4cccc(C(F)(F)F)c4)n3n2)CC1` (stereo unspecified) + CN(C)c1ccc(Nc2c3ccc(NC(=O)CCN4CCCC4)cc3nc3cc(NC(=O)CCN4CCCC4)ccc23)cc1 the IC50 (second compound 0.0316 µM) was 1.59 µM, the IC50 (second compound 0.1 µM) was 1.67 µM and the IC50 (second compound 0.316 µM) was 1.61 µM. For the same compound, the IC50 (second compound 1 µM) was 1.59 µM, the IC50 (second compound 3.16 µM) was 1.53 µM and the IC50 (second compound 10 µM) was 1.47 µM. The viability, T/C [1] was 102%, the viability, T/C [2] was 91.7% and the viability, T/C [3] was 87.4%. It also gave a viability, T/C [4] of 73.4%, a viability, T/C [5] of 15.2% and a viability, T/C [6] of 14.3%. It also gave a viability, T/C [7] of 106%, a viability, T/C [8] of 97% and a viability, T/C [9] of 108%. For the same compound, the viability, T/C [10] was 78.8%, the viability, T/C [11] was 14.7% and the viability, T/C [12] was 12.1%. For the same compound, the viability, T/C [13] was 105%, the viability, T/C [14] was 96.9% and the viability, T/C [15] was 94.9%. It also gave a viability, T/C [16] of 74%, a viability, T/C [17] of 15.2% and a viability, T/C [18] of 16.6%. It also gave a viability, T/C [19] of 95%, a viability, T/C [20] of 100% and a viability, T/C [21] of 90.9%. For the same compound, the viability, T/C [22] was 74.9%, the viability, T/C [23] was 13% and the viability, T/C [24] was 13.6%. The viability, T/C [25] was 91.9%, the viability, T/C [26] was 92.2% and the viability, T/C [27] was 89.5%. The viability, T/C [28] was 71.3%, the viability, T/C [29] was 13.2% and the viability, T/C [30] was 11.4%. The viability, T/C [31] was 84.7%, the viability, T/C [32] was 81.3% and the viability, T/C [33] was 75.9%. For the same compound, the viability, T/C [34] was 69.4%, the viability, T/C [35] was 11.8% and the viability, T/C [36] was 10%.
